Values of other authors, collected in US12465047B2, “Preparation method for L-glufosinate-ammonium powder” (ZHEJIANG UNIVERSITY OF TECHNOLOGY, priority 2020, dated 2025).

Settings: stated as the reason for adjusting pH to 2-2.5 in step (4)

For `CP(=O)(O)CC[C@H](N)C(=O)O.N` [L-glufosinate ammonium], the isoelectric point is listed as 2.66 pH.
